# Reference: patent US10004723B2, “Aromatase inhibitor-releasing intravaginal device” (University of Saskatchewan, priority 2013, dated 2018)
# pIC50: −log10 of the molar value. Marks after values point to notes of the source that are not given here.
# How the values were obtained:
# [1] = test system: MCF-7 cancer cell preparations; experiment: Reported IC50 in MCF-7 cancer cell preparations; set-up: species or system human; conditions: based on the reported IC50 values
# bovine granulosa cells = experiment: Inhibition of estradiol production in bovine granulosa cell culture; assay type: cell-based; conditions: for concentration of estradiol compared with negative control (no FSH stimulation): letrozole 20 and 2 ng/mL, anastrozole 200 and 20 ng/mL, FSH-stimulated cells
# Method: Inhibition of estradiol production by two aromatase inhibitors (letrozole and anastrozole) and a benzimidazole (fenbendazole) was tested in vitro using a bovine granulosa cell culture.
# The granulosa cell culture protocol has been described previously (Zamberlam, Portela et al., 2011). Briefly, bovine ovaries were obtained at a local abattoir and transported to the lab where granulosa cells of antral follicles were collected by rinsing the follicle wall with Dulbecco's Modified Eagle Medium Nutrient Mixture F-12 (DMEMIF12, Invitrogen Life Technologies, Burlington, ON, Canada). Granullosa cells were maintained in culture for 6 days at 37° C. in 5% CO2, in 700 uL of culture medium (Zamberlam, Portela et al., 2011) which was replaced every 2 days. Cells were maintained in culture from Days 0 to 2, followed by the addition of 1 ng/mL of FSH from Days 2 to 4. On Day 4, depending on the treatment group, the culture medium was supplemented with 1 ng/mL FSH plus the estrogen inhibitor of interest, with FSH alone (positive control) or no FSH (negative control). On Day 6, the culture medium was collected and total protein was measured by the Bradford method (Bio-Rad, Mississauga, ON, Canada). Estradiol levels were determined by radioimmunoassay and expressed as total pg of estradiol per ug of protein.
# Three different levels of each compound were tested. The standard concentration used for letrozole was 20 ng/mL. […] The standard dose of fenbendazole was based on a reported maximum concentration 160 ng/mL fenbendazole in plasma after a single oral administration of 7.5 mg/kg of body weight in cattle (Sanyal, 1994). Low and high doses of each aromatase inhibitor were arbitrarily set at standard concentration× 1/10 and standard concentration×10, respectively (Table 1).
# [2] = test system: ovarian function in heifers; experiment: Example III: ovarian function and ovulation synchrony after letrozole device plus PGF and GnRH in heifers; assay type: in vivo, cattle; set-up: Degree of synchrony (residuals of the interval from GnRH to ovulation): unit not given here; conditions: for Dominant follicle diameter (mm) at day before ovulation: GnRH 24 h later, mean ± SEM; for Ovulation failure / Ovulation in relation to GnRH: Before / Ovulation in relation to GnRH: Synchronized: number of heifers
# Source text: (§1) Heifers were examined daily by transrectal ultrasonography to determined the interval to ovulation, which served as control data for comparison with the synchronizing effect of subsequent aromatase inhibitor treatment in the same animals. One heifer was excluded for further use due to aggressive behaviour and handling difficulty. At the time of ovulation (Day 0), heifers were assigned randomly to five groups (n=8-10/group) and given an intravaginal device with a wax-based plus gel coat formulation containing 3 g of letrozole (as described in Example 1) for 4 days starting on Day 0, 4, 8, 12, or 16. At the time of device removal, heifers were given 500 μg PGF followed by 100 μg of GnRH 24 h later (FIG. 10).
# Ultrasound examinations were performed daily from two days before device insertion to 9 days after post-treatment ovulation. Observations from ultrasound examinations were recorded on a sketch sheet in which each ovary and its structures (CL and follicles a 4 mm in diameter) were represented by size and location. Ovulation was defined as the disappearance of a […] between successive examinations after GnRH treatment, and was confirmed by the subsequent detection of a CL [20]. The time of follicular wave emergence was defined as the day of ovulation, or retrospectively as the day when the dominant follicle was first identified at a diameter of 4 to 5 mm. If the dominant follicle was not identified until it reached 6 or 7 mm, the previous day was considered day of wave emergence. The dominant follicle of a wave was defined as the largest antral follicle of the wave. The day of onset of follicular and luteal regression was defined as the first day of an apparent progressive decrease in follicular and luteal diameters, respectively.
# Statistical analyses were done using the Statistical Analysis System software package (SAS Learning Edition 9.1, 2006; SAS Institute Inc., Cary, N.C., USA). Time-series hormone data and follicular diameter profiles were analyzed by analysis of variance for repeated measures using the PROC MIXED procedure to determine the effects of day of treatment (0, 4, 8, 12, and 16), time, and their interactions. Individual time-point comparisons among groups were compared using the least significant difference (LSD) test. Single-point measurements (dominant follicle diameter at device insertion, pre-ovulatory follicle diameter, CL diameter 9 days after the post-treatment ovulation and interval from GnRH treatment to ovulation) were analyzed by one-way analysis of variance. The proportion of heifers that ovulated were compared by Chi-Square test. The degree of synchrony among groups was compared by analysis of variance of the residuals of the interval from GnRH to ovulation. Significance was defined as P≤0.05.
# plasma estradiol = experiment: Example III: plasma estradiol at device removal in heifers; assay type: in vivo, cattle
# Source text: as §1, with “One heifer was excluded for further use due to aggressive behaviour and handling difficulty.” left out
# Blood samples were collected by coccygeal venipuncture into 10 mL heparinized vacuum tubes (Becton Dickinson Vacutainer Systems, Franklin Lakes, N.J., USA). Samples were collected at the time of device removal for estradiol measurement, and at 3, 6 and 9 days following the post-treatment ovulation to determine progesterone concentrations: Additionally, blood samples were collected on Days 4, 8, 12, and 16 from heifers included in Group 16 (Day 0=ovulation) to serve as control data for comparison of estradiol concentrations at the time of device removal in other treatment groups (Groups 0, 4, 8, and 12). […] Blood samples were centrifuged at 1500×g for 20 min and plasma was separated and stored in plastic tubes at −20° C. until assayed.
# Plasma concentrations of estradiol were determined using a commercial radioimmunoassay kit (Double Antibody Estradiol; Diagnostic Products, Los Angeles, Calif., USA). The procedure was carried out in the Department of Animal Health and Biomedical Sciences, University of Wisconsin-Madison, as described, with the following modifications: Standards (0.78-100 pg/mL) were prepared in steroid-free (charcoal-treated) bovine plasma. The standards (250 μL in duplicate) and plasma samples (500 μL in duplicate) were extracted with 3 mL of diethyl ether, frozen in a dry-ice/methanol bath, decanted into assay tubes, and dried overnight under a fume hood. The dried samples and standards were re-suspended with 100 μL of assay buffer (0.1% gelatin in PBS).
# ovulation [3] = experiment: Induction of ovulation in women; assay type: in vivo, human; conditions: women treated at 18 mm follicle diameter
# ovulation [4] = experiment: Inhibition of ovulation in cattle; assay type: in vivo; conditions: treatment during the pre-ovulatory wave in cattle
# [5] = test system: MCF-7 cancer cell preparations; conditions: reported (Kudoh 1996; Bhatnagar 2007), read-out: half maximal inhibitory concentration (IC50); cited from earlier work
# [6] = single oral administration of 7.5 mg/kg of body weight in cattle (Sanyal, 1994); cited from earlier work
# [7] = letrozole groups combined, letrozole device added to PGF-GnRH protocol
structure (smiles),measurement,setting,value
"N#Cc1ccc(C(c2ccc(C#N)cc2)n2cncn2)cc1 [Letrozole, letrozole]",potency relative to anastrozole,[1],approximately 11 times
same,dose at which estradiol synthesis was reduced to that of non-FSH-stimulated cells,bovine granulosa cells,20 ng/mL
same,concentration of estradiol compared with negative control (no FSH stimulation),bovine granulosa cells,did not differ from that of the negative control
same,Dominant follicle diameter (mm) at day before ovulation,"[2]; 3 g letrozole device 4 days from Day 0, PGF at removal",12.8 ± 0.58^a mm
same,Dominant follicle diameter (mm) at day before ovulation,"[2]; 3 g letrozole device 4 days from Day 4, PGF at removal",16.4 ± 0.78^b mm
same,Dominant follicle diameter (mm) at day before ovulation,"[2]; 3 g letrozole device 4 days from Day 8, PGF at removal",14.5 ± 0.83^ab mm
same,Dominant follicle diameter (mm) at day before ovulation,"[2]; 3 g letrozole device 4 days from Day 12, PGF at removal",14.2 ± 0.48^ab mm
same,Dominant follicle diameter (mm) at day before ovulation,"[2]; 3 g letrozole device 4 days from Day 16, PGF at removal",11.7 ± 0.59^a mm
same,heifers with CL of normal diameter at last observation (percent),[2]; 9 days post-letrozole treatment ovulation,62.5%
same,Days from GnRH treatment to ovulation,[2]; Letrozole groups combined,1.9 ± 0.08 days
same,Degree of synchrony (residuals of the interval from GnRH to ovulation),[2]; Letrozole groups combined,0.24 ± 0.07
same,Ovulation failure (percent),[2]; Letrozole groups combined,6%
same,Ovulation in relation to GnRH: Before (percent),[2]; Letrozole groups combined,12%
same,Ovulation in relation to GnRH: Synchronized (percent),[2]; Letrozole groups combined,81%
same,heifers that underwent luteolysis prior to the last observation (percent),[2]; by 9 days after ovulation,37.5%
same,heifers that underwent luteolysis prior to the last observation,"[2]; by 9 days after ovulation, number of 48 heifers",18
same,Proportion that ovulated (heifers/treated),[2]; [7],42/48
same,Proportion that ovulated (percent),[2]; [7],87.1%
same,Ovulation failure,[2]; Letrozole groups combined,3
same,Ovulation in relation to GnRH: Before,[2]; Letrozole groups combined,6
same,Ovulation in relation to GnRH: Synchronized,[2]; Letrozole groups combined,39
same,Ovulation failure,[2]; treatment initiated on Day 0,0
same,Ovulation in relation to GnRH: Before,[2]; treatment initiated on Day 0,0
same,Ovulation in relation to GnRH: Synchronized,[2]; treatment initiated on Day 0,10
same,Ovulation failure,[2]; treatment initiated on Day 4,0
same,Ovulation in relation to GnRH: Before,[2]; treatment initiated on Day 4,3
same,Ovulation in relation to GnRH: Synchronized,[2]; treatment initiated on Day 4,7
same,Ovulation failure,[2]; treatment initiated on Day 8,1
same,Ovulation in relation to GnRH: Before,[2]; treatment initiated on Day 8,0
same,Ovulation in relation to GnRH: Synchronized,[2]; treatment initiated on Day 8,7
same,Ovulation failure,[2]; treatment initiated on Day 12,1
same,Ovulation in relation to GnRH: Before,[2]; treatment initiated on Day 12,0
same,Ovulation in relation to GnRH: Synchronized,[2]; treatment initiated on Day 12,10
same,Ovulation failure,[2]; treatment initiated on Day 16,1
same,Ovulation in relation to GnRH: Before,[2]; treatment initiated on Day 16,3
same,Ovulation in relation to GnRH: Synchronized,[2]; treatment initiated on Day 16,5
same,estradiol concentrations at device removal compared to respective controls,plasma estradiol; Group 0 (P=0.02),lower
same,estradiol concentrations at device removal compared to respective controls,plasma estradiol; Group 4 (P=0.05),lower
same,estradiol concentrations at device removal compared to respective controls,plasma estradiol; Group 8 (P=0.1),tended to be lower
same,estradiol concentrations at device removal compared to respective controls,plasma estradiol; Group 12 (P=0.9),not different from Day 12 controls
same,estradiol concentration at device removal (average),plasma estradiol; all letrozole-treated groups,2.1 ± 0.24 pg/mL
same,ovulation earlier than controls,ovulation [3],24 h
same,delay of ovulation,ovulation [4],24 h
same,pIC50,[5],10.15
"COC(=O)Nc1nc2ccc(Sc3ccccc3)cc2[nH]1 [Fenbendazole, fenbendazole]",reduction of estradiol secretion by FSH-stimulated granulosa cells,bovine granulosa cells; at the levels tested,did not reduce estradiol secretion significantly
same,maximum concentration in plasma,[6],160 ng/mL
"CC(C)(C#N)c1cc(Cn2cncn2)cc(C(C)(C)C#N)c1 [Anastrozole, anastrozole]",dose at which estradiol synthesis was reduced to that of non-FSH-stimulated cells,bovine granulosa cells,200 ng/mL
same,concentration of estradiol compared with negative control (no FSH stimulation),bovine granulosa cells,did not differ from that of the negative control
same,pIC50,[5],9.09
